Test in all cases: inhibition of tumour cell growth, NCI panel, 48 h
The test system of test [1] is UACC-62 melanoma.
Test [2] deals with SK-MEL-2 melanoma.
For test [3], the system named is HT29 colon.
In test [4] the test system is PC-3 prostate.
Test [5] concerns DU-145 prostate.
The test system of test [6] is NCI/ADR-RES ovarian.
In test [7] the test system is ACHN renal.
Test [8] relates to OVCAR-5 ovarian.
The subject of test [9] is SF-295 CNS.
Test [10] has as its system RXF 393 renal.

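The compound was tested at five concentrations on cells cultured in 96-well plates, with a 48-hour exposure period. GI50 is the concentration that inhibits growth by half. The concentration for full growth arrest is given as TGI.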

In the case of `CC1(C)C(=S)C(C)(C)C1=S`, the TGI in [1] was above 100 µM; in [2], above 100 µM; in test [3], above 100 µM; in test [4] it was above 100000 nM; in [5], above 100 µM; in test [6], above 100 µM. The TGI in [7] and in [8] was above 100 µM throughout.

Regarding `CC1=C([Se]CC(OC(=O)[C@@H](CO)NC(=O)OC(C)(C)C)C(=O)NC(C)(C)C)C(=O)c2ccccc2C1=O` (stereo partly specified), the GI50 was 1660 nM in test [1]; 2200 nM in test [2]; 2300 nM in test [3]; 1350 nM in [4]; 1900 nM in test [5]; 316 nM in test [9]. Further, the GI50 is 1860 nM in test [10], 1570 nM in test [7] and 2100 nM in test [8]. Further, the TGI in test [1] came to 3.05 µM; in test [2], 4.57 µM; in [3], 4.74 µM; in test [4], 2850 nM; in [5], 3.37 µM; in test [9], 1.06 µM. Besides, the TGI in [10] was found to be 3.28 µM; in test [7], 3.02 µM; in test [8], 3.73 µM.

Regarding `C=C1Oc2nc3ccccc3c(=O)n2C1(C)C`, the TGI was above 100 µM in test [1]; above 100 µM in test [2]; above 100 µM in test [3]; above 10 µM in test [9]; above 100 µM in test [7]; above 100 µM in test [8].

In the case of `COc1cccc(C2C3=C(COC3=O)N(CCO)c3cc4c(cc32)OCCO4)c1` (stereo unspecified), the TGI is above 50 µM in [1]; 0.219 µM in test [2]; 1.34 µM in test [3]; above 50000 nM in [4]; 0.65 µM in [5]; 0.727 µM in [6]. The TGI in test [7] and in test [8] was above 50 µM throughout. Moreover, the GI50 in test [2] was 39.6 nM; in test [3] it was 124 nM; in test [4], 120 nM; in [5], 157 nM; in [6] it was 0.137 µM; in [9], 38.9 nM. In addition, the GI50 in test [7] is 769 nM; in test [8], 427 nM.

Take `C/C(=C\CCc1ccoc1)CC/C=C(\C)CCCN1CCC(CO)CC1`: the GI50 was 1770 nM in test [1]; 2260 nM in [3]; 8410 nM in test [5]; 3.69 µM in [6]; 2280 nM in test [9]; 1540 nM in test [10]. Further, the figures for the GI50 in test [7] and in test [8] were 4320 nM and 4390 nM, respectively. Moreover, the TGI came to 3.74 µM in [1]; 7.48 µM in test [3]; 20.6 µM in test [5]; 14.6 µM in [6]; 5.41 µM in test [9]; 4.26 µM in [10]. Besides, the TGI in [7] was determined as 16.7 µM; in [8] it was 18.6 µM.

Take `Cc1cc(NS(=O)(=O)c2ccc(NC(=O)c3cccc4c(Nc5ccc(S(=O)(=O)Nc6cc(C)on6)cc5)c5ccccc5nc34)cc2)no1`: the TGI is 35 µM in test [1]; 78.4 µM in test [2]; above 100 µM in test [3]; above 100 µM in test [9]; 61.5 µM in [10]; above 100 µM in [7]. In [8], this molecule came in with a TGI above 100 µM.

With `N#CCC(=O)N/N=C1\C(=O)N(c2ccc(Cl)cc2)C(=O)C(=O)C1c1nc2ccccc2o1` (stereo unspecified), the TGI in test [1], in [2], in test [3], in test [9], in test [10] and in [7] was above 100 µM throughout.

On to `O=C(O)CCC1(Br)CCCCC(Br)C1=O` (stereo unspecified), for which the TGI in test [1], in [2], in [3], in [9], in test [10] and in [7] was above 100 µM in each case. The molecule further registered a TGI in [8] above 100 µM.

Consider `CC(C)(C)[Si](C)(C)O/N=C\c1ccc(O[Si](C)(C)C(C)(C)C)cc1`, for which the TGI in test [1] is above 100 µM; in test [2] it was above 100 µM; in [3] it was above 100 µM; in test [9], above 100 µM; in test [10], 63.7 µM; in [7], above 100 µM. This molecule displayed a TGI in [8] above 100 µM.

For the molecule `O=C(O)C1CCCCN1C(=O)c1ccccc1` (stereo unspecified), the TGI in test [1], in [3], in test [9], in test [10], in test [7] and in test [8] was above 100 µM throughout.

Regarding `COc1cccc(C2NC(=S)NC(C)=C2C(=O)Nc2ccc(F)c(Cl)c2)c1` (stereo unspecified), the GI50 in test [1] was 29300 nM; in [2], 29300 nM; in test [4] it was 23200 nM; in test [5], 36300 nM; in test [6] it was 18.2 µM; in test [9] it was 22400 nM. For the same molecule, the GI50 in test [7] was 23800 nM; in [8] it was 12100 nM. Also, the TGI in [1] is above 50 µM; in test [2] it was above 50 µM; in test [4] it was above 50000 nM; in test [5] it was above 50 µM; in [6] it was above 50 µM; in test [9] it was above 50 µM. Moreover, the TGI in test [7] is above 50 µM; in [8], 38.9 µM.

`Clc1ccc(OC2CCO2)cc1Cl` (stereo unspecified): the TGI in test [1], in test [3], in test [9], in [7] and in test [8] was above 100 µM in each case.

Regarding `CCN(CC)CCNC(=O)c1cccc2cc3ccccc3nc12`, the TGI was found to be 15.9 µM in test [1]; 19.9 µM in test [2]; 35 µM in test [3]; 37.1 µM in [9]; 10.7 µM in [10]; 22.3 µM in test [7]. In test [8], this molecule showed a TGI of 27.7 µM.

Regarding `COC(=O)[C@@]1(C)CC[C@]2(C)CC[C@]3(C)C4=CC=C5C(=CC(=O)C(O)=C5C)[C@]4(C)CC[C@@]3(C)[C@@H]2C1`, the GI50 was 202 nM in [1]; 240 nM in test [2]; 207 nM in test [3]; 240 nM in test [4]; 182 nM in test [5]; 407 nM in [9]. The results for the GI50 in test [10], in [7] and in [8] were 176 nM, 154 nM and 440 nM, respectively. Moreover, the TGI in [1] was 0.467 µM; in test [2], 0.555 µM; in test [3] it was 0.445 µM; in test [4], 573 nM; in [5], 0.382 µM; in [9], 1.62 µM. Also, the figures for the TGI in test [10], in test [7] and in [8] were 0.33 µM, 0.29 µM and 1.5 µM, respectively.

For the molecule `CC[O-].Cc1ccc2cccc([O-])c2n1.Cc1ccc2cccc([O-])c2n1.Cc1ccc2cccc([O-])c2n1.[Ti+4]`, the GI50 is above 35300 nM in [1]; 22900 nM in [2]; 30600 nM in test [3]; 17500 nM in test [9]; 30900 nM in [10]; 50300 nM in test [7]. In test [8], the GI50 was above 65000 nM. The TGI in test [1] was above 52.2 µM; in test [2], above 57.5 µM; in [3], above 88.9 µM; in test [9], above 62 µM; in test [10], 70.9 µM; in test [7], above 100 µM. This molecule returned a TGI in test [8] above 100 µM.

`O=c1c2ccccc2c(=O)c2c1cc(Cl)c1[nH]c3c([nH]c12)c(Cl)cc1c(=O)c2ccccc2c(=O)c13`: the TGI in test [1], in [2], in test [3], in [9], in test [10] and in [7] was above 100 µM each time. For the same molecule, the TGI in test [8] was above 100 µM.

Take `C/C(=N/NC(=O)C(N)=O)C(CC(C(=O)Nc1ccccc1C)/C(C)=N\NC(=O)C(N)=O)C(=O)Nc1ccccc1C` (stereo unspecified): the TGI in test [2], in test [3], in test [9], in [10], in [7] and in test [8] was above 100 µM throughout.

For `O=C(Nc1ccccc1Br)c1cccc([N+](=O)[O-])c1O`, the TGI is 16.4 µM in test [1]; 52.7 µM in [2]; above 63.3 µM in [3]; 25.2 µM in test [9]; 6.71 µM in test [10]; above 36.8 µM in test [7]. The molecule also yielded a TGI in [8] above 94 µM.

Turning to `O=C(O)C1c2ccccc2C(C(=O)O)c2ccccc21` (stereo unspecified), the TGI in [1], in test [2], in test [3], in test [9], in test [10] and in test [7] was above 100 µM throughout. Moreover, the TGI in [8] is above 100 µM.

Regarding `CCC[CH2][Sn]([CH2]CCC)([O]C(=O)c1nccnc1N)[O]C(=O)c1nccnc1N`, the GI50 in test [1] is 998 nM; in [2] it was 424 nM; in test [3] it was 1590 nM; in [9], 1260 nM; in [10], 187 nM; in test [7], 1020 nM. For the same molecule, in [8], the GI50 is 1720 nM. In addition, the TGI was found to be 2.16 µM in [1]; 1.62 µM in test [2]; 3.05 µM in test [3]; 2.52 µM in [9]; 1.31 µM in test [10]; 2.19 µM in [7]. The molecule also showed a TGI in test [8] of 3.1 µM.

On to `COc1cc2cc[n+]3c4cc(OC)c(OC)cc4c(C)cc3c2cc1OC`, for which the TGI in test [1], in [2], in test [3], in test [9], in [7] and in [8] was above 100 µM throughout.

With `CN(c1ccccc1)C1C(=O)N(c2ccccc2)C1/C=C/c1ccccc1` (stereo unspecified), the TGI in test [1], in test [2], in [3], in test [9], in [10] and in test [7] was above 100 µM each time. This molecule also yielded a TGI in test [8] above 100 µM.

Take `NCC1OC(OC2C(CO)OC(OC3C(O)C(N)CC(N)C3OC3OC(CO)C(O)C(O)C3N)C2O)C(N)C(O)C1O` (stereo unspecified): the GI50 in [1], in [2], in test [3], in test [4], in test [6] and in test [9] was above 50 µg/mL each time. For the same molecule, the GI50 in [10], in test [7] and in test [8] was above 50 µg/mL throughout. Moreover, the TGI in test [1], in test [2], in test [3], in test [4], in test [6] and in [9] was above 50 µg/mL in each case. In addition, the TGI in test [10], in test [7] and in test [8] was above 50 µg/mL each time.

For `Cc1cc(C(=O)N2CCN(Cc3ccccc3)CC2)c(C)o1`, the TGI in test [1], in test [3], in test [9], in [7] and in test [8] was above 100 µM in each case.

Turning to `C[C@H]1CC(=O)C2=CCCC3(SCCCS3)[C@@H]2[C@H]1CO`, the TGI in test [1], in [2], in test [3], in test [9], in test [10] and in test [7] was above 100 µM throughout. Moreover, the TGI in test [8] was above 100 µM.

For the molecule `CC1=C(c2cc(C(=O)Nc3ccc(Cl)c(Cl)c3)nc(N)n2)Sc2ccccc2N1`, the TGI in [1], in test [2], in test [3], in test [9], in [10] and in test [7] was above 100 µM each time. Also, in test [8], the TGI was above 100 µM.

Regarding `O=C(O)C#CCO`, the TGI in test [1], in test [2], in test [3], in test [9], in [10] and in test [7] was above 100 µM each time. Also, the TGI in [8] is above 100 µM.

With `COC(=O)C1CCC(Nc2cccc(C(F)(F)F)c2)=N1` (stereo unspecified), the TGI in [1], in test [2], in test [3], in test [9], in [7] and in [8] was above 100 µM throughout.
